From patent publication US20170334899A1, “AMINO-SUBSTITUTED ISOTHIAZOLES” (Bayer Pharma Aktiengesellschaft, priority 2014, published 2017)

Target: T1, human kinase Mps-1 (Homo sapiens, UniProt P33981)
T1 construct: N-terminally GST-tagged human full length recombinant Mps-1 kinase; GST (N); purchased Invitrogen, Karslruhe, Germany PV4071
T1 sequence (P33981 1-857): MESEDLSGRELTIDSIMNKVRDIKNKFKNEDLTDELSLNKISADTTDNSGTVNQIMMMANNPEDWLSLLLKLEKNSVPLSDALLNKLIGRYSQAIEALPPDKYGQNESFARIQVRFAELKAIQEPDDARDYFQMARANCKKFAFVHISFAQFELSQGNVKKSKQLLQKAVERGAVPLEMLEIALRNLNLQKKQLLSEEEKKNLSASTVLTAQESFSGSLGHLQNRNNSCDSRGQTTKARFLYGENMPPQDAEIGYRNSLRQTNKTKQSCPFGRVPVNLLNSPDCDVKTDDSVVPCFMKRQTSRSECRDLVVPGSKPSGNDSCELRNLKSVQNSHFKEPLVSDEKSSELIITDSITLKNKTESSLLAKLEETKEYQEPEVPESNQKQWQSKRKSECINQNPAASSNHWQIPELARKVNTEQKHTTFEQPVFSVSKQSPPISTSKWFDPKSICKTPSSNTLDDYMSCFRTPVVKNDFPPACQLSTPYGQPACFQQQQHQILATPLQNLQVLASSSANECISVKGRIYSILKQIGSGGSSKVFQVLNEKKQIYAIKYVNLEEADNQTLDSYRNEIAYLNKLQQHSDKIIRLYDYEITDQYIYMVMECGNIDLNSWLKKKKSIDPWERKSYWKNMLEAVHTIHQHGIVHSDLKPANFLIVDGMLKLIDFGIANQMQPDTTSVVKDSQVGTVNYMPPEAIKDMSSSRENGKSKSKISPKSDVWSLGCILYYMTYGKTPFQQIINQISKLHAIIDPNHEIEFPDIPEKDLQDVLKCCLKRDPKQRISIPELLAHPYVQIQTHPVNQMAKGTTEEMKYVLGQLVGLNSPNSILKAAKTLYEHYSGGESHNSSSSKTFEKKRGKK
Assay: Mps-1 kinase assay (TR-FRET)
Format: biochemical
Conditions: Mps-1 TR-FRET kinase assay; avg; read-out: Mps1 avg (IC50 [mol/l])
Outline: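 Inhibition normalised between uninhibited reaction (0%) and enzyme-free wells (100%), using the blank-corrected TR-FRET 665/620 nm ratio after EDTA stop. Reaction: ~0.5 nM GST-Mps-1 full length, 10 μM ATP, 1 μM biotin-peptide, 60 min at 22 °C, after 15 min compound pre-binding, pH 7.7.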

SMILES	IC50 [µM]
Cc1nsc(Nc2cncc(C(F)(F)F)n2)c1C(=O)Nc1ccc(F)c(OC2CCN(CCC(F)(F)F)CC2)c1 [Example 343, N-(4-fluoro-3-{[1-(3,3,3-trifluoropropyl)piperidin-4-yl]oxy}phenyl)-3-methyl-5-{[6-(trifluoromethyl)pyrazin-2-yl]amino}-1,2-thiazole-4-carboxamide]	≥ 20
Cc1nsc(Nc2cnc(C(F)(F)F)cn2)c1C(=O)Nc1ccc(OCC2CCN(CCF)CC2)nc1 [Example 344, N-(6-{[1-(2-fluoroethyl)piperidin-4-yl]methoxy}pyridin-3-yl)-3-methyl-5-{[5-(trifluoromethyl)pyrazin-2-yl]amino}-1,2-thiazole-4-carboxamide]	> 20
Cc1nsc(Nc2cnc(C(F)(F)F)cn2)c1C(=O)Nc1ccc(OCC2CCN(CC(F)F)CC2)nc1 [Example 345, N-(6-{[1-(2,2-difluoroethyl)piperidin-4-yl]methoxy}pyridin-3-yl)-3-methyl-5-{[5-(trifluoromethyl)pyrazin-2-yl]amino}-1,2-thiazole-4-carboxamide]	> 20
Cc1nsc(Nc2cnc(C(F)(F)F)cn2)c1C(=O)Nc1ccc(OCCN(C)CCF)nc1 [Example 348, N-(6-{2-[(2-fluoroethyl)(methyl)amino]ethoxy}pyridin-3-yl)-3-methyl-5-{[5-(trifluoromethyl)pyrazin-2-yl]amino}-1,2-thiazole-4-carboxamide]	≥ 20
Cc1nsc(Nc2cnc(C(F)(F)F)cn2)c1C(=O)Nc1ccc(OCCN(C)CC(F)F)nc1 [Example 349, N-(6-{2-[(2,2-difluoroethyl)(methyl)amino]ethoxy}pyridin-3-yl)-3-methyl-5-{[5-(trifluoromethyl)pyrazin-2-yl]amino}-1,2-thiazole-4-carboxamide]	≥ 20
Cc1nsc(Nc2cnc(C(F)(F)F)cn2)c1C(=O)Nc1ccc(OCCN(C)CCC(F)(F)F)nc1 [Example 351, 3-methyl-N-(6-{2-[methyl(3,3,3-trifluoropropyl)amino]ethoxy}pyridin-3-yl)-5-{[5-(trifluoromethyl)pyrazin-2-yl]amino}-1,2-thiazole-4-carboxamide]	> 20
Cc1nsc(Nc2cnc(C(F)(F)F)cn2)c1C(=O)Nc1ccc(OCCCN(C)CCF)nc1 [Example 352, N-(6-{3-[(2-fluoroethyl)(methyl)amino]propoxy}pyridin-3-yl)-3-methyl-5-{[5-(trifluoromethyl)pyrazin-2-yl]amino}-1,2-thiazole-4-carboxamide]	> 20
Cc1nsc(Nc2cnc(C(F)(F)F)cn2)c1C(=O)Nc1ccc(OCCCN(C)CC(F)F)nc1 [Example 353, N-(6-{3-[(2,2-difluoroethyl)(methyl)amino]propoxy}pyridin-3-yl)-3-methyl-5-{[5-(trifluoromethyl)pyrazin-2-yl]amino}-1,2-thiazole-4-carboxamide]	19

The next lines start with the values.

IC50 [µM]	SMILES
> 20	Cc1nsc(Nc2cnc(C(F)(F)F)cn2)c1C(=O)Nc1ccc(OCC2CCN(CC(F)(F)F)CC2)nc1 [Example 346, 3-methyl-N-(6-{[1-(2,2,2-trifluoroethyl)piperidin-4-yl]methoxy}pyridin-3-yl)-5-{[5-(trifluoromethyl)pyrazin-2-yl]amino}-1,2-thiazole-4-carboxamide]
> 20	Cc1nsc(Nc2cnc(C(F)(F)F)cn2)c1C(=O)Nc1ccc(OCC2CCN(CCC(F)(F)F)CC2)nc1 [Example 347, 3-methyl-5-{[5-(trifluoromethyl)pyrazin-2-yl]amino}-N-(6-{[1-(3,3,3-trifluoropropyl)piperidin-4-yl]methoxy}pyridin-3-yl)-1,2-thiazole-4-carboxamide]
≥ 20	Cc1nsc(Nc2cnc(C(F)(F)F)cn2)c1C(=O)Nc1ccc(OCCN(C)CC(F)(F)F)nc1 [Example 350, 3-methyl-N-(6-{2-[methyl(2,2,2-trifluoroethyl)amino]ethoxy}pyridin-3-yl)-5-{[5-(trifluoromethyl)pyrazin-2-yl]amino}-1,2-thiazole-4-carboxamide]
